According to patent US8163779B2, “Glucokinase activators” (Takeda San Diego, Inc., priority 2006, dated 2012):

Target: T1, glucokinase (GK) (Homo sapiens, UniProt P35557)
T1 construct: I.D. No. 1 corresponds to residues 12-465 of glucokinase; made in house; host or cells: E. coli DH10b-T1r
T1 sequence (P35557 with tags, fused parts or gaps isoform P35557-2): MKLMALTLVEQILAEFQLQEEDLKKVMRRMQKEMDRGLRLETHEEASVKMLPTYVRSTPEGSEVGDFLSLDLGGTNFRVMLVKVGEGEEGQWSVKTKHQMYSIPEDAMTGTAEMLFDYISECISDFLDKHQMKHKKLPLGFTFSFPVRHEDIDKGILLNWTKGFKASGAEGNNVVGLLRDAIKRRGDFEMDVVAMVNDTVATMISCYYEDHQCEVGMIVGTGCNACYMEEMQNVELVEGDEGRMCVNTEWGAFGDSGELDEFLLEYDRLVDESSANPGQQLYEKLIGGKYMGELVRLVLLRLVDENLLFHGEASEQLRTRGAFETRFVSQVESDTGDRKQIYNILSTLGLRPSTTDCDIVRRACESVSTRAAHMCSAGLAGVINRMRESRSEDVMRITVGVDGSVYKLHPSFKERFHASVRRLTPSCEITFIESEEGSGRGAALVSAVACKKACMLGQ
Assay: enzymatic glucokinase activity assay (ATP consumption, KinaseGlo luminescence)
Type: biochemical
Conditions: recombinant GK residues 12-465; 5 μM ATP, 5 mM Glucose; Kact = concentration that displays 50% of the maximal increase in GK activity; read-out: pKact
How it was run: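 Activation was scored as ATP consumption, quantified by KinaseGlo luciferase luminescence after a 60 min room-temperature reaction. Reactions contained E. coli-expressed, purified GK, 5 μM ATP, 5 mM glucose, 10 mM MgCl2, 0.01% Brij35 and 2% DMSO at pH 7.2; pKact was fitted non-linearly.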

Structure (SMILES) | EC50
CS(=O)(=O)c1ccn(C(Cc2c(Cl)cccc2Cl)C(=O)Nc2ncc(Cl)s2)c(=O)c1 (centres unmarked) [Example 17, N-(5-chlorothiazol-2-yl)-3-(2,6-dichlorophenyl)-2-(4-(methylsulfonyl)-2-oxopyridin-1(2H)-yl)propanamide] | > 15.8 µM
Cc1cc(-c2ccc(F)cc2)cc(=O)n1[C@@H](CC1CCCCC1)C(=O)Nc1nccs1 [Example 105, (S)-3-cyclohexyl-2-(4-(4-fluorophenyl)-6-methyl-2-oxopyridin-1(2H)-yl)-N-(thiazol-2-yl)propanamide] | > 15.8 µM
Cc1cc(-c2ccccc2Cl)cc(=O)n1[C@@H](CC1CCCCC1)C(=O)Nc1nccs1 [Example 91, (S)-2-(4-(2-chlorophenyl)-6-methyl-2-oxopyridin-1(2H)-yl)-3-cyclohexyl-N-(thiazol-2-yl)propanamide] | > 15.8 µM
O=C(Nc1ncc(Cl)s1)C(CC1CCCCC1)n1cc(Cl)c2sccc2c1=O (centres unmarked) [Example 124, 2-(7-chloro-4-oxothieno[3,2-c]pyridin-5(4H)-yl)-N-(5-chlorothiazol-2-yl)-3-cyclohexylpropanamide] | > 15.8 µM
Cc1cc(-c2ccccc2F)cc(=O)n1[C@@H](CC1CCCCC1)C(=O)Nc1nccs1 [Example 110, (S)-3-cyclohexyl-2-(4-(2-fluorophenyl)-6-methyl-2-oxopyridin-1(2H)-yl)-N-(thiazol-2-yl)propanamide] | > 15.8 µM
NC(=O)c1ccc(NC(=O)[C@@H](CC2CCOCC2)n2ccc(S(=O)(=O)C3CCCC3)cc2=O)nc1 [Example 47, (R)-6-(2-(4-(cyclopentylsulfonyl)-2-oxopyridin-1(2H)-yl)-3-(tetrahydro-2H-pyran-4-yl)propanamido)nicotinamide] | > 15.8 µM
CN1CCN(Cc2cnc(NC(=O)C(CC3CCOCC3)n3ccc(S(=O)(=O)C4CC4)cc3=O)s2)CC1 (centres unmarked) [Example 147, 2-(4-(cyclopropylsulfonyl)-2-oxopyridin-1(2H)-yl)-N-(5-((4-methylpiperazin-1-yl)methyl)thiazol-2-yl)-3-(tetrahydro-2H-pyran-4-yl)propanamide] | > 15.8 µM
Cc1cc(S(=O)(=O)C2CCCC2)cc(=O)n1C(CC1CCOCC1)C(=O)Nc1cnccn1 (centres unmarked) [Example 177, 2-(4-(cyclopentylsulfonyl)-6-methyl-2-oxopyridin-1(2H)-yl)-N-(pyrazin-2-yl)-3-(tetrahydro-2H-pyran-4-yl)propanamide] | > 15.8 µM
COc1ccc2nc(NC(=O)C(CC3CCOCC3)n3ccc(S(=O)(=O)CCCO)cc3=O)sc2n1 (centres unmarked) [Example 67, 2-(4-(3-hydroxypropylsulfonyl)-2-oxopyridin-1(2H)-yl)-N-(5-methoxythiazolo[5,4-b]pyridin-2-yl)-3-(tetrahydro-2H-pyran-4-yl)propanamide] | > 15.8 µM
Cc1cc(-c2ccccc2)cc(=O)n1[C@@H](CC1CCCCC1)C(=O)Nc1nccs1 [Example 90, (S)-3-cyclohexyl-2-(6-methyl-2-oxo-4-phenylpyridin-1(2H)-yl)-N-(thiazol-2-yl)propanamide] | > 15.8 µM
Cc1occc1S(=O)(=O)c1cc(C)n([C@H](CC2CCOCC2)C(=O)Nc2ncc(Cl)s2)c(=O)c1 [Example 65, (R)-N-(5-chlorothiazol-2-yl)-2-(6-methyl-4-(2-methylfuran-3-ylsulfonyl)-2-oxopyridin-1(2H)-yl)-3-(tetrahydro-2H-pyran-4-yl)propanamide] | > 15.8 µM
Cc1cc(S(=O)(=O)C2CC2)cc(=O)n1[C@H](CC1CCCC1)C(=O)Nc1ncc(F)s1 [Example 163, (R)-3-cyclopentyl-2-(4-(cyclopropylsulfonyl)-6-methyl-2-oxopyridin-1(2H)-yl)-N-(5-fluorothiazol-2-yl)propanamide] | > 15.8 µM
Cc1cc(-c2cccc(S(C)(=O)=O)c2)cc(=O)n1[C@@H](CC1CCCCC1)C(=O)Nc1nccs1 [Example 126, (S)-3-cyclohexyl-2-(6-methyl-4-(3-(methylsulfonyl)phenyl)-2-oxopyridin-1(2H)-yl)-N-(thiazol-2-yl)propanamide] | > 15.8 µM
Cn1ccc(NC(=O)C(CC2CCOCC2)n2ccc(S(=O)(=O)C3CC3)cc2=O)n1 (centres unmarked) [Example 66, 2-(4-(cyclopropylsulfonyl)-2-oxopyridin-1(2H)-yl)-N-(1-methyl-1H-pyrazol-3-yl)-3-(tetrahydro-2H-pyran-4-yl)propanamide] | > 15.8 µM
Cc1cc(N2CCCC2)cc(=O)n1C(CC1CCCCC1)C(=O)Nc1nccs1 (centres unmarked) [Example 87, 3-cyclohexyl-2-(6-methyl-2-oxo-4-(pyrrolidin-1-yl)pyridin-1(2H)-yl)-N-(thiazol-2-yl)propanamide] | > 15.8 µM

The remaining lines, values ahead:

EC50 | Structure (SMILES)
> 15.8 µM | O=C(Nc1ncc(Cl)s1)C(CC1CCOCC1)n1ccc(S(=O)(=O)CC(F)(F)F)cc1=O (centres unmarked) [Example 146, N-(5-chlorothiazol-2-yl)-2-(2-oxo-4-(2,2,2-trifluoroethylsulfonyl)pyridin-1(2H)-yl)-3-(tetrahydro-2H-pyran-4-yl)propanamide]
1.58 to 15.8 µM | Cc1cc(S(=O)(=O)C2CCOCC2)cc(=O)n1C(CC1CCCC1)C(=O)Nc1ncc(Cl)s1 (centres unmarked) [Example 174, N-(5-chlorothiazol-2-yl)-3-cyclopentyl-2-(6-methyl-2-oxo-4-(tetrahydro-2H-pyran-4-ylsulfonyl)pyridin-1(2H)-yl)propanamide]
< 1.58 µM | NC(=O)c1ccc(NC(=O)[C@H](CC2CCOCC2)n2ccc(S(=O)(=O)C3CCCC3)cc2=O)nc1 [Example 46, (S)-6-(2-(4-(cyclopentylsulfonyl)-2-oxopyridin-1(2H)-yl)-3-(tetrahydro-2H-pyran-4-yl)propanamido)nicotinamide]
< 1.58 µM | Cc1cc(S(=O)(=O)c2cccc(Cl)c2)cc(=O)n1[C@@H](CC1CCOCC1)C(=O)Nc1ncc(F)s1 [Example 168, (S)2-(4-(3-chlorophenylsulfonyl)-6-methyl-2-oxopyridin-1(2H)-yl)-N-(5-fluorothiazol-2-yl)-3-(tetrahydro-2H-pyran-4-yl)propanamide]
1.58 to 15.8 µM | COc1ccc2nc(NC(=O)[C@H](CC3CCOCC3)n3c(C)cc(S(=O)(=O)c4ccoc4C)cc3=O)sc2n1 [Example 62, (S)-N-(5-methoxythiazolo[5,4-b]pyridin-2-yl)-2-(6-methyl-4-(2-methylfuran-3-ylsulfonyl)-2-oxopyridin-1(2H)-yl)-3-(tetrahydro-2H-pyran-4-yl)propanamide]
1.58 to 15.8 µM | Cc1cc(S(=O)(=O)C2CC2)cc(=O)n1[C@@H](CC1CCCC1)C(=O)Nc1cnccn1 [Example 171, (S)-3-cyclopentyl-2-(4-(cyclopropylsulfonyl)-6-methyl-2-oxopyridin-1(2H)-yl)-N-(pyrazin-2-yl)propanamide]
1.58 to 15.8 µM | Cc1cc(S(=O)(=O)C2CCS(=O)(=O)CC2)cc(=O)n1[C@@H](CC1CCCCC1)C(=O)Nc1ncc(Cl)s1 [Example 187, (S)-N-(5-chlorothiazol-2-yl)-2-(4-(1,1-dioxotetrahydrothiopyran-4-ylsulfonyl)-6-methyl-2-oxopyridin-1(2H)-yl)-3-cyclohexyipropanamide]
1.58 to 15.8 µM | Cc1cnc(NC(=O)C(CC2CCOCC2)n2ccc(OCc3ccccc3)cc2=O)s1 (centres unmarked) [Example 55, 2-(4-(benzyloxy)-2-oxopyridin-1(2H)-yl)-N-(5-methylthiazol-2-yl)-3-(tetrahydro-2H-pyran-4-yl)propanamide]
< 1.58 µM | Cc1cc(S(=O)(=O)C2CC2)c(Cl)c(=O)n1[C@@H](CC1CCCCC1)C(=O)Nc1ncc(Cl)s1 [Example 77, (S)-2-(3-chloro-4-(cyclopropylsulfonyl)-6-methyl-2-oxopyridin-1(2H)-yl)-N-(5-chlorothiazol-2-yl)-3-cyclohexylpropanamide]
1.58 to 15.8 µM | O=C(Nc1nccs1)C(CC1CCOCC1)n1cc(S(=O)(=O)N2CCCC2)ccc1=O (centres unmarked) [Example 139, 2-(2-oxo-5-(pyrrolidin-1-ylsulfonyl)pyridin-1(2H)-yl)-3-(tetrahydro-2H-pyran-4-yl)-N-(thiazol-2-yl)propanamide]
< 1.58 µM | O=C(Nc1nccs1)[C@H](CC1CCCCC1)n1ccc(S(=O)(=O)C2CCCC2)cc1=O [Example 13, (S)-3-cyclohexyl-2-(4-(cyclopentylsulfonyl)-2-oxopyridin-1(2H)-yl)-N-(thiazol-2-yl)propanamide]
1.58 to 15.8 µM | Cc1cc(S(=O)(=O)C2CCCC2)cc(=O)n1C(CC1CCOCC1)C(=O)Nc1nccs1 (centres unmarked) [Example 16, 2-(4-(cyclopentylsulfonyl)-6-methyl-2-oxopyridin-1(2H)-yl)-3-(tetrahydro-2H-pyran-4-yl)-N-(thiazol-2-yl)propanamide]
< 1.58 µM | Cc1c(S(=O)(=O)C2CCCC2)cc(=O)n([C@H](CC2CCOCC2)C(=O)Nc2ncc(F)s2)c1C [Example 153, (R)-2-(4-(cyclopentylsulfonyl)-5,6-dimethyl-2-oxopyridin-1(2H)-yl)-N-(5-fluorothiazol-2-yl)-3-(tetrahydro-2H-pyran-4-yl)propanamide]
< 1.58 µM | Cc1cc(S(=O)(=O)C2CCCC2)cc(=O)n1C(CC(C)C)C(=O)Nc1nccs1 (centres unmarked) [Example 11, 2-(4-(cyclopentylsulfonyl)-6-methyl-2-oxopyridin-1(2H)-yl)-4-methyl-N-(thiazol-2-yl)pentanamide]
